Experimental data published in PMC6946680, “Modulation of brain cation-Cl^− cotransport via the SPAK kinase inhibitor ZT-1a” (Nature Communications, 2020).
Values joined by “and” are separate entries in the source; they are usually repeats but may differ in a detail not shown here. Equal values may be shown once.

Columns and labels:
GST–[T233E]SPAK kinase = biological target: T1, GST–[T233E]SPAK kinase (Homo sapiens, UniProt Q9UEW8, T231E); test: SPAK kinase assay with CATCHtide and IC50 determination; type: biochemical; details: for ZT-1a vs SPAK+MO25, kinase activity / ZT-1a vs SPAK, kinase activity: Fig S7b; for ZT-1a vs SPAK, kinase activity: SPAK alone
T1 construct: made in house; host or cells: E. coli
Source text: II. Experimental procedures
1. Reagents and General methods
Tissue culture reagents were from Life Technologies. P81 phosphocellulose paper was from Whatman […]
and [γ-32P]-ATP was from Perkin Elmer. […] Protein G […]
sepharose was from Amersham. DNA constructs used for transfection were purified from Escherichia coli DH5α using Qiagen or Invitrogen plasmid Maxi kits according to the manufacturer's protocol. All DNA constructs were verified by DNA sequencing.
2. Plasmids, protein expression and purification
DNA clones were from the Division of Signal Transduction Therapy (University of Dundee). The SPAK proteins were expressed in E. Coli and purified as described previously 1.
3. SPAK kinase assays and IC50 determination
SPAK kinase assays employed CATCHtide (cation chloride co-transporter peptide substrate). Peptide kinase assays, performed in triplicate, were set up in a total volume of 50 μl containing 0.5 μg GST– […]
cpm/pmol) and the indicated concentrations of inhibitor dissolved in DMSO. After incubation for 30 min at 30°C, reactions were terminated by spotting 40 μl of the reaction mix onto P81 phosphocellulose paper and immersion in 50 mM phosphoric acid. The papers were washed extensively and incorporation of [γ-32P]ATP into CATCHtide was quantified by Cerenkov counting.
IC50 values were calculated with GraphPad Prism using non-linear regression analysis.
4. Fluorescence polarization […]
concentrations between 0.00001 to 1 mM. Data points are the means of three determinations, with error […]
A Supplemental Fig. 7 Effects of increasing concentrations of ZT-1a on SPAK activity in the absence […]
the absence or presence of five-fold molar excess of wild-type MO25α. b Kinetic data determined for B ZT-1a in the absence or presence of five-fold molar excess of wild-type MO25α. Data are means of […]
presence of wild-type MO25α.

KCC1 pThr927/pThr983 = test: Choroid plexus KCC1 phospho-IP/immunoblot in rat IVH model; type: in vivo
KCC3 pThr991/pThr1048 = test: Choroid plexus KCC3 phospho-IP/immunoblot in rat IVH model; type: in vivo
[1] = tested on: GSK-3β Ser9 phosphorylation; test: Immunoblot of GSK-3β Ser9 phosphorylation in HEK-293 cells; details: for GSK3b pSer9 / Actin: Fig S4b
pKCC3 pThr991/pThr1048 = test: Immunoblot of pKCC3 in ischemic mouse brain membrane fractions; details: for KCC3 / Na-K pumb / pThr991 / KCC3 / pThr991 / Na-K pumb / pThr1048 / KCC3 / pThr1048 / Na-K pumb: Fig 8, individual samples
[2] = rat CPe 48 h post IVH + 1a, replicates

Compound: Cc1cc(C(C#N)c2ccc(Cl)cc2)c(Cl)cc1NC(=O)c1cc(Cl)ccc1O (centres unmarked) [ZT-1a, 5-chloro-N-(5-chloro-4-((4-chlorophenyl)(cyano)methyl)-2-methylphenyl)-2-hydroxybenzamide]
- ZT-1a vs SPAK+MO25, kinase activity (GST–[T233E]SPAK kinase; ZT-1a 1 uM): 365869 C.P.M and 359432 C.P.M and 371032 C.P.M
- ZT-1a vs SPAK+MO25, kinase activity (GST–[T233E]SPAK kinase; ZT-1a 3 uM): 354403 C.P.M and 355755 C.P.M and 331937 C.P.M
- ZT-1a vs SPAK+MO25, kinase activity (GST–[T233E]SPAK kinase; ZT-1a 10 uM): 325521 C.P.M and 299490 C.P.M and 282196 C.P.M
- ZT-1a vs SPAK+MO25, kinase activity (GST–[T233E]SPAK kinase; ZT-1a 100 uM): 119789 C.P.M and 97606 C.P.M and 83035 C.P.M
- ZT-1a vs SPAK+MO25, kinase activity (GST–[T233E]SPAK kinase; ZT-1a 1000 uM): 31455 C.P.M and 51772 C.P.M and 49172 C.P.M
- ZT-1a vs SPAK, kinase activity (GST–[T233E]SPAK kinase; ZT-1a 1e-5 uM): 48785 C.P.M and 47183 C.P.M and 49610 C.P.M
- ZT-1a vs SPAK, kinase activity (GST–[T233E]SPAK kinase; ZT-1a 0.0001 uM): 46475 C.P.M and 45108 C.P.M and 47685 C.P.M
- ZT-1a vs SPAK, kinase activity (GST–[T233E]SPAK kinase; ZT-1a 0.001 uM): 47080 C.P.M and 46113 C.P.M and 46420 C.P.M
- ZT-1a vs SPAK, kinase activity (GST–[T233E]SPAK kinase; ZT-1a 0.003 uM): 44660 C.P.M and 45821 C.P.M and 45595 C.P.M
- ZT-1a vs SPAK, kinase activity (GST–[T233E]SPAK kinase; ZT-1a 0.01 uM): 45890 C.P.M and 44094 C.P.M and 44440 C.P.M
- ZT-1a vs SPAK, kinase activity (GST–[T233E]SPAK kinase; ZT-1a 0.03 uM): 44825 C.P.M and 43187 C.P.M and 44890 C.P.M
- ZT-1a vs SPAK, kinase activity (GST–[T233E]SPAK kinase; ZT-1a 0.1 uM): 44275 C.P.M and 42127 C.P.M and 44780 C.P.M
- ZT-1a vs SPAK, kinase activity (GST–[T233E]SPAK kinase; ZT-1a 0.3 uM): 44230 C.P.M and 41993 C.P.M and 43780 C.P.M
- ZT-1a vs SPAK, kinase activity (GST–[T233E]SPAK kinase; ZT-1a 1 uM): 43840 C.P.M and 42097 C.P.M and 44510 C.P.M
- ZT-1a vs SPAK, kinase activity (GST–[T233E]SPAK kinase; ZT-1a 3 uM): 41230 C.P.M and 39714 C.P.M and 40580 C.P.M
- ZT-1a vs SPAK, kinase activity (GST–[T233E]SPAK kinase; ZT-1a 10 uM): 29580 C.P.M and 31008 C.P.M and 33855 C.P.M
- ZT-1a vs SPAK, kinase activity (GST–[T233E]SPAK kinase; ZT-1a 100 uM): 14995 C.P.M and 17307 C.P.M and 16430 C.P.M
- ZT-1a vs SPAK, kinase activity (GST–[T233E]SPAK kinase; ZT-1a 1000 uM): 5830 C.P.M and 7520 C.P.M and 9285 C.P.M
- IC50 (GST–[T233E]SPAK kinase; absence of wild-type MO25α): 40.5 µM
- IC50 (GST–[T233E]SPAK kinase; presence of five-fold molar excess of wild-type MO25α): 41.3 µM
- KCC1 pThr983 / Actin (KCC1 pThr927/pThr983; [2]): 0.273 and 0.737 and 0.782 and 0.302 and 0.649 and 0.721
- KCC1 pThr927 / Actin (KCC1 pThr927/pThr983; rat CPe 48 h post IVH + 1a, replicates (Fig 4 source data)): 0.027 and 0.029 and 0.034 and 0.025 and 0.037 and 0.024
- reduction of post-IVH KCC1 phosphorylation at Thr927 (KCC1 pThr927/pThr983; rat CPe, ICV ZT-1a): 12 fold
- reduction of post-IVH KCC1 phosphorylation at Thr983 (KCC1 pThr927/pThr983; rat CPe, ICV ZT-1a): 3.4 fold
- KCC3 pThr991 / Actin (KCC3 pThr991/pThr1048; [2]): 0.089 and 0.127 and 0.217 and 0.096 and 0.114 and 0.223
- KCC3 pThr1048 / Actin (KCC3 pThr991/pThr1048; [2]): 0.504 and 0.573 and 0.821 and 0.586 and 0.633 and 0.872
- reduction of post-IVH KCC3 phosphorylation at Thr991 (KCC3 pThr991/pThr1048; rat CPe, ICV ZT-1a): 6 fold
- reduction of post-IVH KCC3 phosphorylation at Thr1048 (KCC3 pThr991/pThr1048; rat CPe, ICV ZT-1a): 2.1 fold
- GSK-3β Ser9 phosphorylation ([1]; 3 µM ZT-1a, HEK-293 cells): not inhibited
- GSK3b pSer9 / Actin ([1]; ZT-1a 0.3 uM): 0.56 and 0.601 and 0.586 and 0.538
- GSK3b pSer9 / Actin ([1]; ZT-1a 1 uM): 0.58 and 0.576 and 0.603 and 0.529
- GSK3b pSer9 / Actin ([1]; ZT-1a 3 uM): 0.53 and 0.5901 and 0.613 and 0.56
- KCC3 / Na-K pumb (pKCC3 pThr991/pThr1048; CL hemisphere): 1.336 and 1.197 and 1.267 and 1.158 and 1.265 and 1.361
- pThr991 / KCC3 (pKCC3 pThr991/pThr1048; CL hemisphere): 1.218 and 1.115 and 1.236 and 1.366 and 1.064 and 1.128
- pThr991 / Na-K pumb (pKCC3 pThr991/pThr1048; CL hemisphere): 1.627 and 1.334 and 1.565 and 1.429 and 1.509 and 1.618
- pThr1048 / KCC3 (pKCC3 pThr991/pThr1048; CL hemisphere): 1.138 and 0.971 and 0.993 and 1.217 and 1.116 and 0.937
- pThr1048 / Na-K pumb (pKCC3 pThr991/pThr1048; CL hemisphere): 1.52 and 1.162 and 1.258 and 1.37 and 1.22 and 1.531
- KCC3 / Na-K pumb (pKCC3 pThr991/pThr1048; IL hemisphere): 1.177 and 1.337 and 1.176 and 1.207 and 1.288 and 1.143
- pThr991 / KCC3 (pKCC3 pThr991/pThr1048; IL hemisphere): 0.804 and 0.867 and 0.759 and 0.638 and 0.69 and 0.743
- pThr991 / Na-K pumb (pKCC3 pThr991/pThr1048; IL hemisphere): 0.946 and 0.897 and 1.023 and 0.942 and 0.889 and 0.849
- pThr1048 / KCC3 (pKCC3 pThr991/pThr1048; IL hemisphere): 0.646 and 0.719 and 0.618 and 0.673 and 0.737 and 0.686
- pThr1048 / Na-K pumb (pKCC3 pThr991/pThr1048; IL hemisphere): 0.76 and 0.987 and 0.854 and 0.792 and 0.949 and 0.785
- reduction of ischemia-induced elevation of pKCC3 (pKCC3 pThr991/pThr1048; compared with vehicle-control mice): 30%
- ischemia-induced increase of pKCC3 (pKCC3 pThr991/pThr1048; post-stroke ZT-1a 5 mg/kg, 24 h reperfusion): prevented
